Test results reported in patent publication US20260049106A1, “PEPTIDE COMPOSITIONS AND METHODS OF USE” (ONL Therapeutics, Inc., priority 2022, published 2026).
Ends that are not written are not given here.

tested on: Jurkat cells; assay: Cell viability preservation in vitro: cell confluence of Jurkat cells after 24-hour incubation with or without recombinant His-tagged FasL and anti-His antibody; format: cell-based; settings: Incucyte / Vi-CELL
Method: Compounds (oligopeptides) of the present disclosure were assayed for their ability to effect cell confluence following a 24-hour incubation. Jurkat cells were incubated for 24 hours with varying concentrations of compound (i.e., 200, 66.7, 22.2, 7.4, 2.5, 0.8, 0.3, and 0.1) and with or without recombinant His-tagged FasL along with an anti-His antibody. After the 24-hour incubation, cell confluence was quantified using an S3 Incucyte Imaging System (Sartorius) and a Vi-CELL XR Cell Viability Analyzer (Beckman Coulter) and compared to controls (cells incubated in the absence of compound and cells incubated with a known Fas inhibitor).

| Substance | Activity (lowest concentration that prevented loss of cell confluency) |
| --- | --- |
| NH2-HHIYLGGGGGNYIY-C(O)NH2 (H-HHIYLGGGGGNYIY-NH2) [Compound 7] | B (cell protection at 1.0 < x < 10.0 μM) |
| NH2-HHIAAGAVNYIY-C(O)NH2 (H-HHIAAGAVNYIY-NH2) [Compound 6] | B (cell protection at 1.0 < x < 10.0 μM) |
| NH2-HHIYLGSSSSNYIY-C(O)NH2 (H-HHIYLGSSSSNYIY-NH2) [Compound 8] | B (cell protection at 1.0 < x < 10.0 μM) |
| NH2-HKIYLGAVNYIY-C(O)NH2 (H-HKIYLGAVNYIY-NH2) [Compound 11] | B (cell protection at 1.0 < x < 10.0 μM) |
| NH2-KKIYLGAVNYIY-C(O)NH2 (H-KKIYLGAVNYIY-NH2) [Compound 9] | B (cell protection at 1.0 < x < 10.0 μM) |
| HHIYLGAVNYIY-NH2 [Compound A, reference compound] | A (cell protection at x < 1.0 μM) |
| NH2-KHIYLGAVNYIY-C(O)NH2 (H-KHIYLGAVNYIY-NH2) [Compound 10] | A (cell protection at x < 1.0 μM) |

tested on: photoreceptor cells; assay: not given; settings: cell culture experiments; separation of the retinal and retinal pigment epithelium; cited from earlier work

| Substance | photoreceptor protection |
| --- | --- |
| H^60HIYLGAVNYIY^71 (HHIYLGAVNYIY) [Met-12] | photoreceptor protective |

tested on: not given; assay: not given; settings: apparently clear solution in 20 mM citrate buffer pH 2.8, in vitro and in vivo assays; cited from earlier work

| Substance | loss in activity |
| --- | --- |
| H^60HIYLGAVNYIY^71 (HHIYLGAVNYIY) [Met-12] | at least a fivefold loss in activity |
